Results: patent US11638745B2, “Method to improve neurologic outcomes in temperature managed patients” (University of Pittsburgh—Of the Commonwealth System of …, priority 2015, dated 2023)
“Also recorded” adds a separate entry of the source.

Columns and labels:
[1] = used to chemically lower core body temperature; cited from earlier work
[2] = mammals; cited from earlier work
[3] = test system: RBM3; experiment: RBM3 protein levels by Western blot in drug-treated primary cortical neurons at 37° C. or 36° C.; assay type: cell-based, rat; settings: for RBM3 levels: 24 h treatment; for RBM3 protein expression: DIV7 neurons cultured at 37° C., 24 h treatment with increasing dose
Description: Primary Cortical Neuron Culture. Embryos (mixed gender) were isolated from timed pregnant (E16-17) Sprague Dawley rats. Neuron cultures were performed as previously described (Jackson TC, et al. (2013) Pharmacological inhibition of pleckstrin homology domain leucine-rich repeat protein phosphatase is neuroprotective: differential effects on astrocytes. J Pharmacol Exp Ther 347:516-528). Cortices were dissected in ice-cold Hanks balanced salt solution (HBSS; Life Technologies, Grand Island, N.Y., USA) containing sodium bicarbonate (SIGMA), penicillin-streptomycin (Life Technologies), and 4-(2-hydroxyethyl)-1-piperazineethanesulfonic acid (HEPES; Life Technologies). Brain tissues were dissected under a Leica M651 light microscope (Buffalo Grove, Ill., USA), and placed in a 1.5 mL tube containing ˜1 mL prepared HBSS. Tissues were minced and transferred to a 15 mL conical tube. Cells were spun 5 min/200 g/4° C. Supernatant was aspirated, cells resuspended in 2 mL trypsin solution, and incubated 8 min at 37° C. with gentle mixing. Trypsin activity was quenched in 10 mL Neurobasal/B27 (Life Technologies) containing 10% fetal bovine serum (FBS; Thermo Fisher Scientific, Pittsburgh, Pa., USA). Cells were transferred into a new 15 mL conical tube and spun 5 min/200 g/4° C. Supernatant was replaced with 1.5 mL trituration media. Cells were dissociated by 10 passages through a fire-polished glass Pasteur pipette. The cell pellet was resuspended in plating media warmed to 37° C. (Neurobasal Media/B27 supplement prepared+25 μM L-Glutamic Acid+Pen-Strep). Cell number was quantified by automatic counting on a Cellometer (Nexcelom Bioscience, Lawrence, Mass., USA). Cells were seeded onto 6-well culture plates coated with poly-D-lysine (density ˜1.2-1.5×10^6/well). Cultures were maintained by half media replacement every ˜3-4 days in vitro (DIV). The mitotic inhibitor cytosine β-D-arabinofuranoside hydrochloride (ARA-C; 4 μM final concentration) was added in study 1 experiment (e.g. DIV10-11 cultures) to ensure purity of neuronal biochemistry for initial assessment of temperature treatments. Mitotic inhibitors at low levels are non-toxic but still potentially represent a mild stressor (though necessary to guarantee neuron purity) (Ahlemeyer B, et al., (2003) Cytosine arabinofuranoside-induced activation of astrocytes increases the susceptibility of neurons to glutamate due to the release of soluble factors. Neurochem Int 42:567-581). Results of temperature treatments were confirmed in younger DIV6 neurons in the absence of ARA-C (neuron enriched cultures; >90% neurons). Astrocytes were allowed to proliferate in aged cultures, which were not treated with ARA-C. It was observed that astrocytes are necessary for long-term survival of neuron cultures (i.e. DIV26 mature neuron cultures).
Hypothermia Protocols: Neurons were maintained in a 37° C. (normothermic) incubator. Before start of hypothermia, two identical incubators of the same make/model with humidity of ˜95% (all in the same room) were programmed to 36° C. and 33° C. Incubators were allowed a minimum of 48 h equilibration time prior to starting hypothermic experiments. In some experiments, as an additional control, a thermometer was placed inside hypothermic incubators as a secondary gauge of temperature. Temperature as assessed by that approach was independently confirmed to never be under target temperature and fluctuate by no more than ˜0.5° C. On DIV of interest, culture plates were assigned to one of the three experimental temperatures for 24 or 48 h.
Drug Treatments: Drugs were prepared in DMSO or PBS (i.e. for FGF21). All drugs were diluted in conditioned culture media and applied for 24 h. Controls received equal amounts of DMSO/PBS without drugs. Primary neurons were harvested for biochemistry at key time points. RBM3 and CIRBP levels were measured by Western blot. Investigators were not blinded to temperature treatment groups.
Western Blot. […]

[4] = test system: RBM3; experiment: as above; assay type: cell-based, rat; settings: mature DIV26 neurons, 48 h at 36° C., drug combinations; melatonin 100 μM, T090 1 μM
[5] = test system: RBM3 mRNA; settings: mouse liver, microarray; cited from earlier work
[6] = test system: piglet model of perinatal ischemic brain injury; settings: hypothermia 33.5° C.; cited from earlier work
[7] = test system: AKT/ERK; experiment: AKT/ERK phosphorylation by Western blot in FGF21-treated neurons; assay type: cell-based, rat; settings: neurons at 37° C., 24 h later
Description: Primary Cortical Neuron Culture. Embryos (mixed gender) were isolated from timed pregnant (E16-17) Sprague Dawley rats. Neuron cultures were performed as previously described (Jackson TC, et al. (2013) Pharmacological inhibition of pleckstrin homology domain leucine-rich repeat protein phosphatase is neuroprotective: differential effects on astrocytes. J Pharmacol Exp Ther 347:516-528). Cortices were dissected in ice-cold Hanks balanced salt solution (HBSS; Life Technologies, Grand Island, N.Y., USA) containing sodium bicarbonate (SIGMA), penicillin-streptomycin (Life Technologies), and 4-(2-hydroxyethyl)-1-piperazineethanesulfonic acid (HEPES; Life Technologies). Brain tissues were dissected under a Leica M651 light microscope (Buffalo Grove, Ill., USA), and placed in a 1.5 mL tube containing ˜1 mL prepared HBSS. Tissues were minced and transferred to a 15 mL conical tube. Cells were spun 5 min/200 g/4° C. Supernatant was aspirated, cells resuspended in 2 mL trypsin solution, and incubated 8 min at 37° C. with gentle mixing. […] Cell number was quantified by automatic counting on a Cellometer (Nexcelom Bioscience, Lawrence, Mass., USA). […]
Drug Treatments: Drugs were prepared in DMSO or PBS (i.e. for FGF21). […] RBM3 and CIRBP levels were measured by Western blot. […]
Western Blot. […] Protein concentration was determined using the BCA assay (Thermo Scientific-PIERCE). […]

[8] = test system: PND17 rats given CCI; experiment: PND17 CCI with TH/TTM ± FGF21 (MWM behavior, cell death histology); assay type: in vivo, rat; settings: 1 mg/kg FGF21 IV at start and end of TH/TTM
Description: TTM and TH. PND17 and 12 wk adult Sprague Dawley rats receive external cooling. Endogenous RBM3/β-Klotho levels is compared in male and female rats. The TTM group is cooled to 36° C. within ˜5 min then maintained to target temperature for 7 h: 25 min. The TH group is cooled to 33° C. over ˜1 h then to target temperature for 3 h: 15 min then rewarmed at a rate of 1° C./hr. Time spent<37° C. is equal in all groups (8 h: 30 mins). FIGS. 11A, 11B, 12A, and 12B illustrate exemplary protocols for these groups.
PND17 CCI. Rats are given CCI in Aim 271, 72. Isoflurane anesthetized ˜35 g PND17 rats are craniotomized at the left parietal cortex and injured by pneumatic impactor (velocity, 4 m/s; depth, 2.5 mm). Randomization is by (A) temperature (37° C., 36° C., 33° C.), and (B)±CCI±1 mg/kg FGF21 or PBS vehicle. Two bolus IV injections of drug will be given—at the start and end of TH/TTM. Technicians are blind to treatments.
MWM Behavior. Rats are given MWM testing 73, 74. […] Motor skill is assessed measuring swim speed proving cognitive performance is not confounded by motor deficits.
Cell Death. […] Surviving CA1/CA3 cells are counted in H & E stained brain sections 7 d post-injury by unbiased stereology. 21 d contusion volume is measured after MWM in separate rats […]

[9] = young DIV6 neurons at 37° C., same concentrations
[10] = young DIV6 neurons cooled to 36° C., 5 nM FGF21, 100 μM melatonin, 1 μM T090, 5 μM SRT1720, 1 μM AZD1080

Nc1ncnc2c1ncn2[C@@H]1O[C@H](COP(=O)(O)O)[C@@H](O)[C@H]1O [5-AMP, adenosine monophosphate]
side effects [1]: profound hypotension and hyperglycemia
body temperature [2]: chemically induce hypothermia

N#Cc1ccc2[nH]c(O)c(-c3ccc(CN4CCOCC4)cn3)c2c1 [AZD1080]
RBM3 levels [3, 9]: Neither SRT1720 (Sirtuin antagonist) nor AZD1080 (GSK-3β antagonist) increased RBM3 levels; also recorded: did not affect RBM3 levels
RBM3 levels [3, 10]: Neither SRT1720 (Sirtuin antagonist) nor AZD1080 (GSK-3β antagonist) increased RBM3 levels; also recorded: did not affect RBM3 levels

O=C(Nc1ccccc1-c1cn2c(CN3CCNCC3)csc2n1)c1cnc2ccccc2n1 [SRT1720]
RBM3 levels [3, 9]: Neither SRT1720 (Sirtuin antagonist) nor AZD1080 (GSK-3β antagonist) increased RBM3 levels; also recorded: did not affect RBM3 levels
RBM3 levels [3, 10]: Neither SRT1720 (Sirtuin antagonist) nor AZD1080 (GSK-3β antagonist) increased RBM3 levels; also recorded: did not affect RBM3 levels

O=S(=O)(c1ccccc1)N(CC(F)(F)F)c1ccc(C(O)(C(F)(F)F)C(F)(F)F)cc1 [T090]
RBM3 protein expression [3]: minor effects on RBM3 protein expression
RBM3 levels [3, 9]: mildly increased RBM3 levels
RBM3 levels ([3]; young DIV6 neurons at 37° C., same concentrations, listed as T0901317): mildly induced RBM3
RBM3 levels [3, 10]: mildly increased RBM3 levels
RBM3 levels ([3]; young DIV6 neurons cooled to 36° C., 5 nM FGF21, 100 μM melatonin, 1 μM T090, 5 μM SRT1720, 1 μM AZD1080, listed as T0901317): augmented RBM3 upregulation; also recorded: mildly induced RBM3
RBM3 induction [4]: failed to do so
RBM3 mRNA [5]: upregulate RBM3 mRNA

COc1ccc2[nH]cc(CCNC(C)=O)c2c1 [melatonin]
RBM3 protein expression [3]: minor effects on RBM3 protein expression
RBM3 levels [3, 9]: failed to do so
RBM3 levels [3, 10]: augmented RBM3 upregulation; also recorded: augmented RBM3 levels; also recorded: increased hypothermia-induced RBM3
RBM3 levels ([3]; young DIV6 neurons cooled to 36° C., 5 nM FGF21, 100 μM melatonin, 1 μM T090, 5 μM SRT1720, 1 μM AZD1080, listed as Melatonin): augment RBM3 induction
RBM3 induction [4]: failed to do so
hypothermia induced neuroprotection [6]: augments hypothermia (33.5° C.) induced neuroprotection

B1: FGF21: Fibroblast growth factor 21 protein, purchased from R&D Systems (protein, UniProt Q9NSA1 29-209, looked up)
Fibroblast growth factor 21: HPIPDSSPLLQFGGQVRQRYLYTDDAQQTEAHLEIREDGTVGGAADQSPESLLQLKALKPGVIQILGVKTSRFLCQRPDGALYGSLHFDPEACSFRELLLEDGYNVYQSEAHGLPLHLPGNKSPHRDPAPRGPARFLPLPGLPPALPEPPGILAPQPPDVGSSDPLSMVGPSQGRSPSYAS
RBM3 levels above baseline ([3]; DIV7 neurons cultured at 36° C., 24 h, dose effect): increased RBM3 above baseline in a bi-phasic manner
RBM3 protein expression [3]: minor effects on RBM3 protein expression
RBM3 levels [3, 9]: failed to do so
RBM3 levels [3, 10]: augment RBM3 induction; also recorded: induces RBM3; also recorded: augments RBM3; also recorded: augmented RBM3 upregulation; also recorded: augmented RBM3 levels; also recorded: increased hypothermia-induced RBM3
AKT/ERK phosphorylation [7]: decreased
TH/TTM induced neuroprotection after a CCI [8]: augments TH/TTM induced neuroprotection
RBM3 induction [4]: failed to do so
body temperature [2]: slight body temperature reduction
